Data from US20170232083A1, “METHODS OF DIAGNOSIS AND TREATMENT OF CELIAC DISEASE IN CHILDREN” (priority 2014, published 2017).

Tested on: PBMC (polyclonal gluten-specific T cells) of paediatric and adult CD patients
Assay: IFN-γ ELISpot of PBMC after 3 day oral wheat challenge (SFU, % of maximal peptide response, dominance scores, EC50; Examples 5-6)
Format: cell-based, human
Settings: for Cross-reactive T cell response: following wheat challenge; for IFN-γ ELISpot response: after oral wheat challenge
[1] = subject I (3-5yrs/6-10yrs part)
[2] = subject J (3-5yrs/6-10yrs part)
[3] = subject K (3-5yrs/6-10yrs part)
[4] = subject V (3-5yrs/6-10yrs part)
[5] = subject W (3-5yrs/6-10yrs part)
[6] = subject Y (3-5yrs/6-10yrs part)
[7] = subject five (3-5yrs/6-10yrs part)
[8] = subject seven (3-5yrs/6-10yrs part)
[9] = subject six (3-5yrs/6-10yrs part)
[10] = subject ten (3-5yrs/6-10yrs part)
[11] = subject two (3-5yrs/6-10yrs part)

Sequence: NPLQPEQPFPLQPQPP
- Cross-reactive T cell response (subject A, 11-17yrs): 3 SFU
- Significant response as a percentage of maximal peptide SFU (subject D, 11-17yrs): ′′ (21-40% = ′′)
- Cross-reactive T cell response (subject D, 11-17yrs): 12 SFU
- Significant response as a percentage of maximal peptide SFU (subject E, 11-17yrs): (6-10% - ^)
- Cross-reactive T cell response (subject E, 11-17yrs): 21 SFU
- Significant response as a percentage of maximal peptide SFU (subject F, 11-17yrs): ′ (11-20% = ′)
- Cross-reactive T cell response (subject F, 11-17yrs): 25 SFU
- Cross-reactive T cell response (subject G, 11-17yrs): 1 SFU
- Significant response as a percentage of maximal peptide SFU (subject H, 11-17yrs): + (>70% = +)
- Cross-reactive T cell response (subject H): 14 SFU
- Cross-reactive T cell response [1]: 1 SFU
- Significant response as a percentage of maximal peptide SFU (subject J): ′ (11-20% = ′)
- Cross-reactive T cell response [2]: 38 SFU
- Significant response as a percentage of maximal peptide SFU (subject K): ′′ (21-40% = ′′)
- Cross-reactive T cell response [3]: 19 SFU
- Cross-reactive T cell response (subject P, 11-17yrs): 6 SFU
- Significant response as a percentage of maximal peptide SFU (subject Q, 11-17yrs): ′′ (21-40% = ′′)
- Cross-reactive T cell response (subject Q, 11-17yrs): 23 SFU
- Significant response as a percentage of maximal peptide SFU (subject T, 11-17yrs): ′′ (21-40% = ′′)
- Cross-reactive T cell response (subject T, 11-17yrs): 33 SFU
- Cross-reactive T cell response (subject U, 11-17yrs): 9 SFU
- Cross-reactive T cell response [4]: 6 SFU
- Cross-reactive T cell response [5]: 7 SFU
- Cross-reactive T cell response [6]: 3 SFU
- Significant response as a percentage of maximal peptide SFU (subject five): ′′ (21-40% = ′′)
- Cross-reactive T cell response [7]: 14 SFU
- Cross-reactive T cell response (subject nine, 11-17yrs): 1 SFU
- Cross-reactive T cell response [8]: 4 SFU
- Significant response as a percentage of maximal peptide SFU (subject six): + (>70% = +)
- Cross-reactive T cell response [9]: 13 SFU
- Significant response as a percentage of maximal peptide SFU (subject ten): + (>70% = +)
- Cross-reactive T cell response [10]: 11 SFU
- Significant response as a percentage of maximal peptide SFU (subject two): ′ (11-20% = ′)
- Cross-reactive T cell response [11]: 10 SFU

Sequence: PEQPFPEQPEQPF
- IFN-γ ELISpot response (patient A, 11-17 yrs, cut-off 10 SFU): 2 SFU
- IFN-γ ELISpot response (patient E, H, 11-17 yrs, cut-off 10 SFU): 14 SFU
- Significant response as percentage of maximal peptide SFU (patient E, max peptide 224 SFU): (6-10% = ^)
- IFN-γ ELISpot response (patient F, 11-17 yrs, cut-off 10 SFU): 2 SFU
- IFN-γ ELISpot response (patient G, 11-17 yrs, cut-off 10 SFU): 2 SFU
- IFN-γ ELISpot response (patient H (HLA-DQ2.5 homozygote), 3-5yrs, cut-off 10 SFU): 4 SFU
- IFN-γ ELISpot response (patient H, 11-17 yrs, cut-off 10 SFU): 9 SFU
- IFN-γ ELISpot response (patient ID not given, 11-17 yrs, cut-off 10 SFU): 15 SFU
- Significant response as percentage of maximal peptide SFU (patient ID not given, max peptide 95 SFU): ′ (11-20% = ′)
- Significant response as percentage of maximal peptide SFU (patient J, max peptide 196 SFU): ′ (11-20% = ′)
- Significant response as percentage of maximal peptide SFU (patient K, max peptide 53 SFU): ′′ (21-40% = ′′)
- IFN-γ ELISpot response (patient N, 3-5yrs, cut-off 10 SFU): 0 SFU
- IFN-γ ELISpot response (patient P, 11-17 yrs, cut-off 21.6 SFU): 10 SFU
- IFN-γ ELISpot response (patient Q, 11-17 yrs, cut-off 10 SFU): 11 SFU
- Significant response as percentage of maximal peptide SFU (patient Q, max peptide 97 SFU): ′ (11-20% = ′)
- IFN-γ ELISpot response (patient U, H, 11-17 yrs, cut-off 10 SFU): 5 SFU
- IFN-γ ELISpot response (patient V, 6-10 yrs, cut-off 10 SFU): 3 SFU
- IFN-γ ELISpot response (patient Y, 6-10 yrs, cut-off 10 SFU): 2 SFU
- IFN-γ ELISpot response (patient eleven, 6-10 yrs, cut-off 10 SFU): 12 SFU
- Significant response as percentage of maximal peptide SFU (patient eleven, max peptide 57 SFU): ′′ (21-40% = ′′)
- IFN-γ ELISpot response (patient four, 3-5yrs, cut-off 10 SFU): 4 SFU
- Significant response as percentage of maximal peptide SFU (patient nine, max peptide 10 SFU): + (>70% = +)
- IFN-γ ELISpot response (patient seven, 6-10 yrs, cut-off 10.5 SFU): 5 SFU
- IFN-γ ELISpot response (patient ten, 3-5yrs, cut-off 10 SFU): 11 SFU
- Significant response as percentage of maximal peptide SFU (patient ten, max peptide 14.5 SFU): + (>70% = +)
- IFN-γ ELISpot response (patient three, 6-10 yrs, cut-off 10.5 SFU): 24 SFU
- IFN-γ ELISpot response (patient twelve, 11-17 yrs, cut-off 10 SFU): 1 SFU
- IFN-γ ELISpot response (patient two, 3-5yrs, cut-off 10 SFU): 9 SFU

Sequence: PEQPFPEQPQPYPQQP
- Cross-reactive T cell response (subject A, 11-17yrs): 2 SFU
- Cross-reactive T cell response (subject D, 11-17yrs): 2 SFU
- Significant response as a percentage of maximal peptide SFU (subject E, 11-17yrs): (6-10% - ^)
- Cross-reactive T cell response (subject E, 11-17yrs): 13 SFU
- Cross-reactive T cell response (subject F, 11-17yrs): 6 SFU
- Cross-reactive T cell response (subject G, 11-17yrs): 2 SFU
- Cross-reactive T cell response (subject H): 6 SFU
- Cross-reactive T cell response [1]: 2 SFU
- Significant response as a percentage of maximal peptide SFU (subject J): ′ (11-20% = ′)
- Cross-reactive T cell response [2]: 36 SFU
- Cross-reactive T cell response [3]: 6 SFU
- Cross-reactive T cell response (subject P, 11-17yrs): 10 SFU
- Cross-reactive T cell response (subject Q, 11-17yrs): 2 SFU
- Cross-reactive T cell response (subject T, 11-17yrs): 0 SFU
- Cross-reactive T cell response (subject U, 11-17yrs): 1 SFU
- Cross-reactive T cell response [4]: 1 SFU
- Cross-reactive T cell response [5]: 9 SFU
- Cross-reactive T cell response [6]: 1 SFU
- Cross-reactive T cell response [7]: 1 SFU
- Cross-reactive T cell response (subject nine, 11-17yrs): 1 SFU
- Cross-reactive T cell response [8]: 4 SFU
- Cross-reactive T cell response [9]: 5 SFU
- Significant response as a percentage of maximal peptide SFU (subject ten): + (>70% = +)
- Cross-reactive T cell response [10]: 12 SFU
- Cross-reactive T cell response [11]: 1 SFU

Sequence: PEQPFQPEQPFPQQ
- Cross-reactive T cell response (subject A, 11-17yrs): 2 SFU
- Cross-reactive T cell response (subject D, 11-17yrs): 1 SFU
- Significant response as a percentage of maximal peptide SFU (subject E, 11-17yrs): (6-10% - ^)
- Cross-reactive T cell response (subject E, 11-17yrs): 12 SFU
- Cross-reactive T cell response (subject F, 11-17yrs): 6 SFU
- Cross-reactive T cell response (subject G, 11-17yrs): 5 SFU
- Cross-reactive T cell response (subject H): 3 SFU
- Cross-reactive T cell response [1]: 1 SFU
- Significant response as a percentage of maximal peptide SFU (subject J): ′ (11-20% = ′)
- Cross-reactive T cell response [2]: 31 SFU
- Cross-reactive T cell response [3]: 8 SFU
- Cross-reactive T cell response (subject P, 11-17yrs): 9 SFU
- Cross-reactive T cell response (subject Q, 11-17yrs): 7 SFU
- Significant response as a percentage of maximal peptide SFU (subject T, 11-17yrs): ′ (11-20% = ′)
- Cross-reactive T cell response (subject T, 11-17yrs): 11 SFU
- Cross-reactive T cell response (subject U, 11-17yrs): 6 SFU
- Cross-reactive T cell response [4]: 7 SFU
- Cross-reactive T cell response [5]: 3 SFU
- Cross-reactive T cell response [6]: 1 SFU
- Cross-reactive T cell response [7]: 3 SFU
- Cross-reactive T cell response (subject nine, 11-17yrs): 0 SFU
- Cross-reactive T cell response [8]: 7 SFU
- Cross-reactive T cell response [9]: 2 SFU
- Significant response as a percentage of maximal peptide SFU (subject ten): + (>70% = +)
- Cross-reactive T cell response [10]: 12 SFU
- Cross-reactive T cell response [11]: 6 SFU

Sequence: PEQPQPFPEQPVPQQP
- Cross-reactive T cell response (subject A, 11-17yrs): 3 SFU
- Cross-reactive T cell response (subject D, 11-17yrs): 3 SFU
- Cross-reactive T cell response (subject E, 11-17yrs): 4 SFU
- Cross-reactive T cell response (subject F, 11-17yrs): 6 SFU
- Cross-reactive T cell response (subject G, 11-17yrs): 1 SFU
- Cross-reactive T cell response (subject H): 0 SFU
- Cross-reactive T cell response [1]: 0 SFU
- Cross-reactive T cell response [2]: 7 SFU
- Cross-reactive T cell response [3]: 4 SFU
- Cross-reactive T cell response (subject P, 11-17yrs): 8 SFU
- Cross-reactive T cell response (subject Q, 11-17yrs): 6 SFU
- Cross-reactive T cell response (subject T, 11-17yrs): 5 SFU
- Cross-reactive T cell response (subject U, 11-17yrs): 1 SFU
- Cross-reactive T cell response [4]: 3 SFU
- Cross-reactive T cell response [5]: 4 SFU
- Cross-reactive T cell response [6]: 2 SFU
- Cross-reactive T cell response [7]: 0 SFU
- Cross-reactive T cell response (subject nine, 11-17yrs): 0 SFU
- Cross-reactive T cell response [8]: 4 SFU
- Cross-reactive T cell response [9]: 2 SFU
- Significant response as a percentage of maximal peptide SFU (subject ten): + (>70% = +)
- Cross-reactive T cell response [10]: 11 SFU
- Cross-reactive T cell response [11]: 3 SFU
